From a melting point compilation (Tetko et al.; mined from patent text by program, amines drawn as free bases though some values may be those of a salt)

Structure (SMILES)	melting point
O=C1C(=O)c2ccccc2C2=C1SCC(CNCCc1ccccc1)O2 (configuration not stated)	80 to 82 °C
Cc1nn(C)c2c1c(=O)n(-c1ccccc1)c1ncccc21	> 300 °C
Cc1ncc2cccc(CCCCCC(=O)O)n12	170 to 173 °C
CCOC(=O)c1conc1-c1ccc(-c2ccccc2)cc1	81 to 82 °C
COc1ccc(Nc2cc(NCCCO)ncn2)cc1	151 to 152 °C
CC(C)(C)c1cc(CNC2CCCCC2)c(O)c(C(C)(C)C)c1	67 to 70 °C
CC(C)(C)c1cc(-c2nnc(C(N)=S)s2)cc(C(C)(C)C)c1O	215 to 216 °C
N#CCCNC(=O)c1cccc(-c2cccc(Oc3ccc4[nH]ccc4c3)n2)c1	150 to 151 °C
Fc1ccc(-c2nc3c(c(=S)[nH]2)CCCC3)cc1	198 to 200 °C
CC(C)(C)OC(=O)CNc1ccccc1C(=O)c1ccccc1	88 °C
Cc1nc2cc(C(O)(c3ccc(Cl)cc3)c3cncn3C)cc3c(-c4cccc(Cl)c4)cc(=O)n1c23 (configuration not stated)	170 °C
Nc1nc2[nH]c(=S)sc2c(=O)[nH]1	> 300 °C
CC(C)n1c(-c2ccccc2)nc(-c2ccc(F)cc2)c1CO	190 to 193 °C
Cc1ccc2c(c1)C=Cc1cc(C)ccc1C2c1cn(Cc2nc(C(=O)N[C@@H](CC(=O)O)C(=O)O)cs2)c(=O)[nH]c1=S	175 °C
O=[N+]([O-])C=C1SCCN1Cc1ccc(Cl)nc1	177 to 179 °C
COC(=O)C1=C(NC(=O)NC2CCCCC2)CSC1	154 to 155 °C
CC(=O)COc1ccc(N2N=C3c4cc(F)ccc4CCC3CC2=O)cc1 (configuration not stated)	195 to 196 °C
CCOC(=O)c1cnc(N2CCN(S(=O)(=O)c3ccc4ccccc4c3)CC2)nc1	> 260 °C
C=CCOc1ccc(-c2ccc(C(=O)O)cc2)cc1	360 °C
CC(C)(N)Cc1nc2ccccc2[nH]1	209 to 214 °C
CN(c1cccc2cc(C3=NCC4(CCOCC4)S3)[nH]c12)S(=O)(=O)c1cccs1	189 to 191 °C
CNC12CC(O)CCC1CCc1ccccc12 (configuration not stated)	141 to 143 °C
COc1ccc(CNc2nc(COCC(=O)O)nc3sc4c(c23)CCCC4)cc1Cl	136 to 137 °C
O=C(c1cc(-c2ccccc2)no1)C1CCCCC1N1CCCC1 (configuration not stated)	109 to 111 °C

Structure (SMILES)	melting point
COc1c(C(=O)NN=Cc2ccc(Cl)cc2)[nH]c2ccccc12	249 to 251 °C
CC(C)(C)OC(=O)N1CCN(CCCC2(C)Cn3cc([N+](=O)[O-])nc3O2)CC1 (configuration not stated)	166 to 167 °C
C=CCC1C(=NO)C2CCC1CC2 (configuration not stated)	124 to 125 °C
NC(c1ccccc1)C12CC(CN1)C2 (configuration not stated)	46.5 to 47 °C
C#CCCN1CCC(O)(c2ccc(Cl)cc2)CC1	98 to 100 °C
Cc1ccc(OC(=O)c2cccc(C(=O)Oc3ccc(C)cc3-n3nc4ccccc4n3)c2)c(-n2nc3ccccc3n2)c1	115 to 118 °C
O=C1OC(CCc2ccccc2)(c2ccccc2)CC(O)=C1CCc1ccccc1 (configuration not stated)	68 to 70 °C
CNc1ccc(CCc2cc(OC)ccc2OC)cc1C(=O)OC	73 °C
CC(=O)NCCCCCC(=O)Nc1ncccc1C(=O)c1ccc(Cl)cc1	117 to 119 °C
N[C@@H](Cc1ccc(C(F)(F)F)c(F)c1)[C@H](O)c1ccc(F)cc1 (racemic)	86 to 87 °C
O=C(O)CC1(O)CCC(N2CCN(CCCNc3ccncc3)CC2)CC1 (configuration not stated)	242 °C
COc1c(F)cc2c(=O)c(C(=O)O)cn3c2c1CCC3C (configuration not stated)	234 to 236 °C
NCC(=O)Nc1ccc([N+](=O)[O-])cc1C(=NO)c1ccccc1F	198 °C
CC(=O)c1ccc(NS(C)(=O)=O)c(S(=O)c2ccc(F)cc2F)c1 (configuration not stated)	151 to 152 °C
CCN(CC)c1ccc(C2(c3ccc(N(C)C)cc3N(C)C)OC(=O)c3c(Cl)c(Cl)c(Cl)c(Cl)c32)cc1 (configuration not stated)	206 to 208 °C
O=C(c1ccc2c(c1)OCCO2)c1ccc2nc(Cl)nc(-c3cccc(Cl)c3)c2c1	198 °C
O=C(Nc1nc(-c2ccco2)c(-c2ccncc2)s1)c1cc[nH]c(=O)c1	277 to 281 °C
Nc1cccc(NC(=O)NCCCOc2cccc(CN3CCCCC3)c2)c1	116 to 118 °C
CC(c1cccnc1)c1c[nH]c(=S)[nH]c1=O (configuration not stated)	225 to 228 °C
COc1ccc(C2CC(=O)N(C(=S)NCc3ccc(F)cc3)N2C)cc1OC1CCCC1 (configuration not stated)	48 to 51 °C
COc1cc2c(Nc3ccc(Cl)cc3F)ncnc2cc1OCCN(C)C(=O)OC(C)(C)C	194 to 196 °C
CC(Oc1ccc(C(C)(C)C)cc1C(C)(C)C)C(=O)O (configuration not stated)	106 to 111 °C
N#CC(C(=O)NCc1ccccc1Cl)C(=O)c1nn(-c2ccccc2)c2c1CSc1ccccc1-2 (configuration not stated)	228 to 230 °C
CN(C(=O)CN1C(=O)C2(COc3cc4c(cc32)CCO4)c2ccccc21)c1ccccc1 (configuration not stated)	234 to 238 °C

Structure (SMILES)	melting point
CC(=O)Nc1ccc(Nc2ncnc3[nH]cc(C(=O)c4ccccc4)c23)cc1	263 to 264 °C
CC(CS)C(=O)N1CCC=C1C(=O)O (configuration not stated)	112 to 114 °C
COc1ccc(-c2ncccc2OC2SCC(O)C(O)C2O)cc1 (configuration not stated)	137 °C
O=CNCS(=O)(=O)c1ccc2ccccc2c1	139 to 141 °C
N#CC(C#N)=C1N(CCCCN2CCCCC2)CCN1CCN1CCCCC1	78 to 79 °C
CC1(C)Oc2ccc(C#N)cc2C(Oc2ccc(O)nn2)C1O (configuration not stated)	232 to 233 °C
COc1ccc(C(=O)[C@H]2CC=CC[C@H]2C(=O)O)cc1F (relative stereo)	185 to 187 °C
CN(O)C(=O)Nc1ccc(Cl)c(C(F)(F)F)c1	114 to 115 °C
CCOC(=O)CC(C#N)(CC(=O)OCC)c1ccccn1	86.5 to 88 °C
COc1cc(C)c(-c2c(C)cncc2C)c(C)c1	87 to 88 °C
CC(=O)OCCOCn1cnc2c(=O)[nH]c(N)nc21	240 to 241 °C
CC(C)n1cc(C(=O)Nc2nccs2)c2ccc(S(C)(=O)=O)cc21	247 to 249 °C
O=C(c1ccc(OCc2ccnc3ccccc23)cc1)[NH+]([O-])C1CCN(Cc2ccccc2)CC1 (configuration not stated)	171 to 173 °C
O=C(Nc1nccs1)c1c(C(F)(F)F)nc(-c2cccs2)c(-c2ccccc2)c1O	136 °C
Cn1nc(-c2ccc(Cl)c(NS(C)(=O)=O)c2)c2ccccc2c1=O	234 to 236 °C
CC(C)(C)NC(=O)NCc1ccc2c(c1)CN(C1CCC(=O)NC1=O)C2=O (configuration not stated)	260 to 262 °C
CCOC(=O)CCc1c(-c2ccccc2)c2cc(C)c(C)cc2c(=O)n1C	138 to 139 °C
CCn1c(=O)c2c(nc(/C=C/c3ccc(O)c(C)c3C)n2C)n(CC)c1=O	240 to 242 °C
COC(=O)C1(C)c2ccccc2Oc2ccccc21	91 to 92 °C
CC1(C)OC(=O)N2CCNCC21 (configuration not stated)	92 to 93 °C
Cc1cccc(Nc2cc(Nc3ccc(OCC(=O)N(C)C)c(Cl)c3)ncn2)c1	190 to 193 °C
CCc1nc(/C=C/c2cn(-c3ccccc3)nc2OCc2ccc(OCc3nc(-c4cccc(C(=O)NS(C)(=O)=O)c4)oc3C)c(OC)c2)cs1	211 to 213 °C
C=CCOCc1[nH]c(=O)c(CC(C)C)[n+]([O-])c1N	149 to 151 °C
CC1(C)C=C(N2CCCC2=O)c2cc(C#N)ccc2C1	131 to 132 °C
